Data from patent US20180346988A1, “ZNF532 FOR DIAGNOSIS AND TREATMENT OF CANCER” (THE BRIGHAM AND WOMEN'S HOSPITAL, INC., priority 2015, published 2018).

Legend:
Format in all cases: cell-based, human
PVT1 RNA = experiment: RNA-seq at the MYC locus (PVT1 lncRNA) in 24335 cells; conditions: JQ1 administered for 4 h prior to RNA collection
Protocol: (FIG. 11A) Localization of ZNF532-NUT and effects on transcription at the MYC locus based on ChIP-seq and RNA-seq. JQ1 was administered for 4 h prior to RNA collection.
Morphologic differentiation is evidenced by accumulation of abundant cytoplasm, enlargement of nuclei and cytoplasm, and formation of cohesive spheres. […] It has been shown that an important function of ZNF532-NUT is to maintain expression of MYC. […] One such megadomain occupies a region proximal to MYC (FIG. 11A). […] Consistent with its role in MYC upregulation, knockdown of ZNF532-NUT leads to decreased MYC protein levels (FIG. 11B).

24335 cells = experiment: Differentiation and proliferation of ZNF532-NUT+ 24335 NMC cells (involucrin/keratin expression, H&E); conditions: BET inhibitor treatment
Protocol: FIGS. 8A-8B describe experimental data showing differentiation of ZNF532-NUT+24335 cells in response to NUT knockdown or BET inhibitor.
(FIG. 10A) Immunoblot of involucrin expression, a marker of squamous differentiation. (FIG. 10B) H&E showing differentiation as evidenced by formation of cohesive spherical clusters, and marked accumulation of cytoplasm. (FIG. 10C) 500 nM JQ1 BET inhibitor was administered. Dose-response to JQ1 measured by cell titer glo. (FIG. 10D) Effects of ZNF532 and NUT knock down on number of mitoses quantified by immunohistochemistry using anti-histone H3phospho-serine antibody.
The importance of ZNF532 in NMC was underscored by simultaneous discovery of a patient with pulmonary NMC (FIG. 5A) harboring a ZNF532-NUT fusion gene, that was identified by whole transcriptome RNAsequencing (FIG. 5B), and confirmed by cytogenetics, fluorescence in situ hybridization (FISH), RT-PCR, western blotting, and immunofluorescence (FIGS. 5C-5F, 6). The fusion gene is comprised of exon 3 of ZNF532 fused to intron 1 of NUT (FIG. 7). The resulting predicted 1500 amino acid protein includes the N-terminal 778 amino acids of ZNF532, encoding only the first two of eleven zinc fingers and a large unstructured domain, part of intron 1 of NUT, and its remaining exons 2-7 (FIGS. 8A-8B). […]

ZNF532 locus = experiment: Nascent RNA-seq of transcription at the ZNF532 locus in NMC cell lines; conditions: NMC cell lines 797 and 1015, in the presence of JQ1
From the text: Transcription is seen in two of the NMC cell lines, 797 and 1015, and is shown to diminish in the presence of JQ1.

Cc1sc2c(c1C)C(c1ccc(Cl)cc1)=N[C@@H](CC(=O)OC(C)(C)C)c1nnc(C)n1-2 [JQ1, (S)-tert-butyl 2-(4-(4-chlorophenyl)-2,3,9-trimethyl-6H-thieno[3,2-f][1,2,4]triazolo[4,3-a][1,4]diazepin-6-yl)acetate]
expression of the PVT1 RNA (PVT1 RNA): decreased expression | differentiation of 24335 cells (expression of involucrin, marker of terminal squamous differentiation) (24335 cells): results in differentiation | transcription at the ZNF532 locus (ZNF532 locus): diminish
